Data: patent EP2667887B1, “PHARMACEUTICAL COMPOSITION COMPRISING THE PEPTIDE GLU-ASP-GLY AND USE FOR TREATING HELICOBACTER PYLORI INDUCED GASTRODUODENAL DISEASES” («Garmonia», Ltd., priority 2011, dated 2012)

What was measured:
[1] = test system: human gastric epithelium cells SGC7901; test: Effect on Helicobacter pylori-induced mitochondrial mechanisms of apoptosis in gastric epitheliocytes (mito-GFP confocal microscopy); type: cell-based; details: Klacid 500 ng/mL as positive control, same conditions as peptide 10 µM
Procedure: To evaluate the biological activity and effects of peptide H-Glu-Asp-Gly-OH on mitochondrial mechanisms of apoptosis in gastric epitheliocytes, induced by Helicobacter pylori germs, human gastric epithelium cells SGC7901 were studied. The cells were cultivated at 37°C in a damp incubation medium containing 50 mL/L CO2 in DMEM (Dulbecco's Modified Eagle's Medium, ICN Biomedicals) and 10% calf embryonic serum. A preliminary separation of cells for passaging was carried out in the ratio of 1:3-1:5 using a mixture of 0.125% trypsin, 0.02M EDTA (ethylenediaminetetraacetic acid), 0.02% glucose dissolved in a phosphate buffer. The cells were placed on a 24-well plate in the amount of 10^6 cells per well. The cells were passaged in a cultivation medium for 5 days and then taken for study.
On the 5th day after the beginning of cell passaging the peptide H-Glu-Asp-Gly-OH in the dose of 10 µM was administered in the cultivation medium, and in 30 minutes of incubation the cells were taken for study. Klacid antibiotic (clarithromycin, Abbott) in the dose of 500 ng/mL was administered to the cultures in the same conditions as positive control. […]
The status of isolated mitochondria was evaluated using immunofluorescent confocal laser microscopy. […]
Confocal microscopy of mitochondria with optical density evaluation was performed in an inverted confocal microscope Olympus Fluoview CM FV300-IX70 using an apochromatic lens 606 UPlan (Olympus). A 488 nm excitation wave of argon laser was used in each chamber to specify mito-GFP fluorescence that verifies the structure of mitochondria.

modeled ulcer = test: Morphology study of the induced gastric ulcer (cysteamine-HCL + Helicobacter pylori); type: in vivo, Sprague Dawley rats; details: treatment daily for 5 days, Klacid 10 mg intramuscularly
Procedure: The study was carried out on 90 male Sprague Dawley rats (180-220 g) randomly subdivided into 9 groups (10 animals per group): • Group 1 - intact rats (saline solution) • Group 2 - modeled ulcer + saline solution • Group 3 (6 subgroups) - modeled ulcer + H-Glu-Asp-Gly-OH • Group 4 - modeled ulcer + Klacid antibiotic
Ulcer was modeled by three-time administration (in 4 hours) in the rat stomach of cysteamine-HCL (Aldrich, Milwannee, WI) by means of a probe in the dose of 25 mg per 100 g of body weight. The ulcer, approximately 28 mm^2 in size, appeared at the boundary between antral and fundal segments of the stomach 12 hours after the last administration. Simultaneously with the first administration of cysteamine-HCL a Helicobacter pylori culture (Curtin Matheson Scientific Inc, strain Cag J117, 100 microbial cells) was administered in the rat stomach through the same probe.
(§1) A means on the basis of the pharmaceutical composition comprising the studied peptide H-Glu-Asp-Gly-OH was administered subcutaneously in the dose of 1 µg per kg of animal body weight (group 3a), 2,5 µg per kg of body weight (group 3b) and 10 µg per kg of body weight (group 3c) in 0,5 ml of saline solution daily, for 5 days from the occurrence of the stomach ulcer.
as §1, with “The means” for “A means”, “administered intragastrically (through a probe)” for “administered subcutaneously”, “(group 3d),” for “(group 3a),”, “(group 3e)” for “(group 3b)”, “(group 3f)” for “(group 3c)”
Antibiotic Klacid (clarithromycin, Abbott) was administered intramuscularly in the dose of 10 mg in 1 ml of saline solution daily for 5 days from the occurrence of the stomach ulcer.
Material for study was taken from ulcer edge on the 7th day (for western blot assay and polymerase chain reaction in real time - RT-PCR), as well as on the 7th, 15th and 21st day for morphology study and confocal microscopy.
For a morphology study, pieces of gastric mucous membrane from the ulcer edge were fixed in 10% neutral formalin (pH 7.2), then the material was dried out in a Leica TP1020 automatic station (Leica) and covered with paraffin. 5 µm thick paraffin slices were placed on object plates covered with a poly-L-lysine film (Sigma). For a visual study the slices were stained with hematoxylin and eosin, as well as with picrofuxin by the van Gison method.

## CC[C@H]1OC(=O)[C@H](C)[C@@H](O[C@H]2C[C@@](C)(OC)[C@@H](O)[C@H](C)O2)[C@H](C)[C@@H](O[C@@H]2O[C@H](C)C[C@H](N(C)C)[C@H]2O)[C@](C)(OC)C[C@@H](C)C(=O)[C@H](C)[C@@H](O)[C@]1(C)O [Klacid, clarithromycin]
[1]
  biological activity (prevention of Helicobacter pylori-induced mitochondrial apoptosis disorder) relative to the peptide composition: comparable in terms of efficiency
Modeled ulcer; 7th day after ulcer induction, peptide 1, 2,5, 10 µg/kg subcutaneously or intragastrically
  ulcer pathomorphosis, 7th day: largely similar to the changes in Group 3
Modeled ulcer; 15th day after ulcer induction, peptide 1, 2,5, 10 µg/kg subcutaneously or intragastrically
  ulcer pathomorphosis, 15th day: The same changes were observed
Modeled ulcer; 21st day after ulcer induction, peptide both methods of administration and three dosages
  ulcer pathomorphosis, 21st day: caused the same changes
